The values below come from patent US20240002416A1 (Rheinische-Friedrich-Wilhelms-Universität Bonn, priority 2020, published 2024).

Some results are limits rather than exact numbers.

Holding throughout (type): cell-based
Test [1] has as its target T1, MRGPRX4-83S (Homo sapiens, UniProt Q96LA9, L83S). Nature of the test: β-arrestin assay (CHO β-arrestin human MRGPRX4-83S). Also on record: host or cells: CHO β-arrestin cells. To be noted: for EC50: β-arrestin recruitment, CHO cells, MRGPRX4-83S, read-out: EC50 ± SEM; for Emax: efficacy based on 100 nM B-16 (set as 100%), read-out: Emax. The method, then:
(§1) For β-arrestin recruitment assays, recombinant Chinese hamster ovary (CHO) cells expressing the human MRGPRX4 were used (DiscoverX/Eurofins) which allowed to measure β-galactosidase complementation upon β-arrestin recruitment. For calcium mobilization assays, recombinant astrocytes expressing MRGPX4-83L, or LN229 glioblastoma cells natively expressing the MRGPRX4-83S, were used.
(§2) The assays were performed as previously described for other rhodopsin-like GPCRs (Müller, C.E.; 8-Benzamidochromen-4-one-2-carboxylic acids: potent and selective agonists for the orphan G protein-coupled receptor GPR35. J. Med. Chem. 2013, 56:5182-97; Müller, C.E. Molecular Recognition of Agonists and Antagonists by the Nucleotide-Activated G Protein-Coupled P2Y2 Receptor. J. Med. Chem. 2017, 60:8425-8440).
In general terms: Arrestin recruitment assays detect the binding of arrestin to an activated receptor.

The target of test [2] is T2, human MRGPRX4-83L (Homo sapiens, UniProt Q96LA9).
T2 construct: host or cells: CHO β-arrestin cells
T2 sequence (Q96LA9 whole entry): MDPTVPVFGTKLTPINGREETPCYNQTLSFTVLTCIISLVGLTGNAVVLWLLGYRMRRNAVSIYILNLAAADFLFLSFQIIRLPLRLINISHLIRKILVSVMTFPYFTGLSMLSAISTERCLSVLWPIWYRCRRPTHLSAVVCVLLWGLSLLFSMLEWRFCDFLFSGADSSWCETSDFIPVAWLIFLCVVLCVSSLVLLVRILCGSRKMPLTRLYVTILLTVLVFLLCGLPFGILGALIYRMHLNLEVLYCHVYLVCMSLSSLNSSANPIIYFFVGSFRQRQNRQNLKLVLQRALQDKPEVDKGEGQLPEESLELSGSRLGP
Put plainly: β-arrestin assay (CHO β-arrestin ARMS1-ProLink 2 human MRGPRX4 83L). To be noted: Table 1; for IC50: inhibition of the effect of 2.6 μM B-16; for EC50: β-arrestin recruitment, CHO cells, MRGPRX4-83L, means of 3-4 experiments, read-out: EC50 ± SEM; for Emax: efficacy based on maximal effect of 100 nM B-16 (set as 100%), read-out: Emax. The method, then:
as §1, §2

The target of test [3] is T2, human MRGPRX4-83L. Nature of the test: Calcium assay (human MRGPRX4 83L), recombinant astrocytes. To be noted: for EC50 / Emax: Table 1; for EC50: calcium mobilization, MRGPRX4-83L, read-out: EC50 ± SEM; for Emax: efficacy based on maximal effect of 1 μM B-16 (set as 100%), read-out: Emax. The method, then: as §1, §2
In test [4] the target is T1, MRGPRX4-83S. Put plainly: Calcium assay (human glioblastoma LN229 cells expressing the MRGPRX4-83S). Also on record: LN229 glioblastoma cells natively expressing the MRGPRX4-83S; endogenous in cells; host or cells: LN229 human glioblastoma cells. To be noted: for Emax: LN-229, efficacy based on 30 μM H-1 (set as 100%), read-out: Emax; for EC50: calcium mobilization, LN229 cells, MRGPRX4-83S, read-out: EC50 ± SEM. The method, then:
as §1, §2
On the technique in general: Calcium flux is commonly read through the fluorescence of an indicator in the cells.

T1 sequence (Q96LA9 whole entry L83S): as the sequence (Q96LA9 whole entry) above, with L83S counted along it

One may read the EC50 as the concentration giving half of the maximal effect. By IC50 is commonly meant the midpoint of a concentration-inhibition curve. Consider `C#CCn1c(=O)c2[nH]c(CCc3ccccc3Br)nc2n(CCCCS(=O)(=O)O)c1=O` [E-1, 4-(8-(2-Bromophenethyl)-2,6-dioxo-1-(prop-2-yn-1-yl)-1,2,6,7-tetrahydro-3H-purin-3-yl)butane-1-sulfonic acid], for which the EC50 was above 10000 nM in test [1] (Table 2), above 10 µM in test [2] and above 10 µM in test [3]. In addition, the IC50 in test [2] and in test [3] was above 10 µM in each case.

As usually defined, the Emax is the maximal effect, on the per cent scale that the assay sets. For `C#CCn1c(=O)c2c(nc(CCc3ccccc3Br)n2C)n(CCCCP(=O)(O)O)c1=O` [B-18, (4-(8-(2-Bromophenethyl)-7-methyl-2,6-dioxo-1-(prop-2-yn-1-yl)-1,2,6,7-tetrahydro-3H-purin-3-yl)butyl)phosphonic acid], the Emax turned out to be 128% in test [1] (Table 2), 108% in test [4] (Table 2), 132% in test [2] and 112% in test [3]. For the same compound, the EC50 in test [1] (Table 2) turned out to be 0.296 ± 0.033 nM; in test [4] (Table 2) it was 0.000501 ± 7.6e-05 µM; in test [2], 0.0935 ± 0.0054 µM; in test [3], 0.00635 ± 0.00167 µM.

Turning to `C#CCn1c(=O)c2c(nc(CCc3ccccc3Br)n2C)n(CCCCP(=O)(O)OCC)c1=O` [D-1, Ethyl hydrogen (4-(8-(2-bromophenethyl)-7-methyl-2,6-dioxo-1-(prop-2-yn-1-yl)-1,2,6,7-tetrahydro-3H-purin-3-yl)butyl)phosphonate], the Emax in test [1] (Table 2) was 120%; in test [4] (Table 2), 105%; in test [2], 108%; in test [3] it was 115%. The EC50 in test [1] (Table 2) stood at 114 ± 23 nM; in test [4] (Table 2) it was 0.134 ± 0.012 µM; in test [2], 0.395 ± 0.126 µM; in test [3], 0.0555 ± 0.009 µM.

In the case of `C#CCn1c(=O)c2[nH]c(CCc3ccc(OC)c(OC)c3)nc2n(CCCCP(=O)(OCC)OCC)c1=O` [C-8, Diethyl (4-(8-(3,4-dimethoxyphenethyl)-2,6-dioxo-1-(prop-2-yn-1-yl)-1,2,6,7-tetrahydro-3H-purin-3-yl)butyl)phosphonate], the figures for the EC50 in test [1] (Table 2), in test [2] and in test [3] were above 10000 nM, above 10 µM and above 10 µM, respectively. The IC50 in test [2] and in test [3] was above 10 µM each time.

Take `C#CCn1c(=O)c2[nH]c(CCc3cccc(OC)c3)nc2n(CCCCP(=O)(O)O)c1=O` [B-2, (4-(8-(3-Methoxyphenethyl)-2,6-dioxo-1-(prop-2-yn-1-yl)-1,2,6,7-tetrahydro-3H-purin-3-yl)butyl)phosphonic acid]: the Emax was found to be 98% in test [1] (Table 2), 99% in test [4] (Table 2), 91% in test [2] and 102% in test [3]. Also, the EC50 in test [1] (Table 2) came to 32 ± 11 nM; in test [4] (Table 2), 0.0112 ± 0.0013 µM; in test [2], 5.71 ± 1.23 µM; in test [3], 0.435 ± 0.078 µM.

For the compound `C#CCn1c(=O)c2c(nc(CCc3cccc(OC)c3)n2C)n(CCCOP(=O)(O)O)c1=O` [H-1, 3-(8-(3-Methoxyphenethyl)-7-methyl-2,6-dioxo-1-(prop-2-yn-1-yl)-1,2,6,7-tetrahydro-3H-purin-3-yl)propyl dihydrogen phosphate, reference compound], the Emax is 86% in test [1] (Table 2), 98% in test [4] (Table 2), 97% in test [2] and 107% in test [3]. The EC50 in test [1] (Table 2) turned out to be 374 ± 111 nM; in test [4] (Table 2), 0.238 ± 0.011 µM; in test [2], 13 ± 4.1 µM; in test [3], 0.574 ± 0.179 µM.

On to `C#CCn1c(=O)c2[nH]c(/C=C/c3cccc(OC)c3)nc2n(CCCOP(=O)(O)O)c1=O` [H-3, (E)-3-(8-(3-Methoxystyryl)-2,6-dioxo-1-(prop-2-yn-1-yl)-1,2,6,7-tetrahydro-3H-purin-3-yl)propyl dihydrogen phosphate, reference compound], for which the EC50 was above 10000 nM in test [1] (Table 2), above 10 µM in test [4] (Table 2), above 10 µM in test [2] and above 10 µM in test [3]. The IC50 in test [2] and in test [3] was above 10 µM throughout.

For the compound `C#CCn1c(=O)c2c(nc(CCc3c(C)cccc3C)n2CC)n(CCCCP(=O)(O)O)c1=O` [B-33, (4-(8-(2,6-Dimethylphenethyl)-7-ethyl-2,6-dioxo-1-(prop-2-yn-1-yl)-1,2,6,7-tetrahydro-3H-purin-3-yl)butyl)phosphonic acid], in test [1] (Table 3), the Emax is 113% and the EC50 is 0.0487 ± 0.0201 nM. In test [4] (Table 3), the Emax came out at 113% and the EC50 was determined as 0.000543 ± 0.000186 µM.

Regarding `CCCn1c(=O)c2[nH]c(-c3ccccc3)nc2n(CCCCP(=O)(O)O)c1=O` [J-3, (4-(2,6-Dioxo-8-phenyl-1-propyl-1,2,6,7-tetrahydro-3H-purin-3-yl)butyl)phosphonic acid], the IC50 in test [1], in test [2] and in test [3] was above 10 µM in each case. The EC50 in test [1] (Table 2) was above 10000 nM; in test [4] (Table 2), above 10 µM; in test [2], above 10 µM; in test [3], above 10 µM.

On to `C#CCn1c(=O)c2[nH]c(CCc3ccccc3)nc2n(CCCCP(=O)(O)O)c1=O` [B-1, (4-(2,6-Dioxo-8-phenethyl-1-(prop-2-yn-1-yl)-1,2,6,7-tetrahydro-3H-purin-3-yl)butyl)phosphonic acid], for which the Emax in test [1] (Table 2) stood at 84%; in test [4] (Table 2), 92%; in test [3], 110%. For the same compound, the EC50 in test [1] (Table 2) is 399 ± 115 nM; in test [4] (Table 2), 0.134 ± 0.017 µM; in test [2], above 10 µM; in test [3] it was 3.25 ± 0.61 µM. The compound also returned an IC50 in test [2] above 10 µM.

For the compound `CCCn1c(=O)c2c(nc(CCc3cccc(OC)c3)n2C)n(CCCOP(=O)(O)O)c1=O` [H-2, 3-(8-(3-Methoxyphenethyl)-7-methyl-2,6-dioxo-1-propyl-1,2,6,7-tetrahydro-3H-purin-3-yl)propyl dihydrogen phosphate, reference compound], the EC50 in test [1] (Table 2) is 674 ± 50 nM; in test [4] (Table 2) it was 0.801 ± 0.233 µM; in test [2], above 10 µM; in test [3] it was 2.5 ± 0.73 µM. The values for the Emax in test [4] (Table 2) and in test [3] were 88% and 113%, respectively. This compound came in with an IC50 in test [2] above 10 µM.

As for `C#CCn1c(=O)c2c(nc(CCc3ccccc3Cl)n2C)n(CCCCP(=O)(O)O)c1=O` [B-17, (4-(8-(2-Chlorophenethyl)-7-methyl-2,6-dioxo-1-(prop-2-yn-1-yl)-1,2,6,7-tetrahydro-3H-purin-3-yl)butyl)phosphonic acid], in test [2], the Emax amounted to 114% and the EC50 was determined as 0.169 ± 0.06 µM. Moreover, in test [3], the EC50 came to 0.00223 ± 0.00013 µM and the Emax came to 109%.

Consider `C#CCn1c(=O)c2[nH]c(CCc3cccc(OC)c3)nc2n(CCCCP(=O)(OCC)OCC)c1=O` [C-6, Diethyl (4-(8-(3-methoxyphenethyl)-2,6-dioxo-1-(prop-2-yn-1-yl)-1,2,6,7-tetrahydro-3H-purin-3-yl)butyl)phosphonate], for which the EC50 was above 10000 nM in test [1] (Table 2), above 10 µM in test [2] and above 10 µM in test [3]. Besides, the IC50 in test [2] and in test [3] was above 10 µM each time.

On to `C#CCn1c(=O)c2[nH]c(CCc3cccc(OC)c3)nc2n(CCCCS(=O)(=O)O)c1=O` [E-3, 4-(8-(3-Methoxyphenethyl)-2,6-dioxo-1-(prop-2-yn-1-yl)-1,2,6,7-tetrahydro-3H-purin-3-yl)butane-1-sulfonic acid], for which the EC50 in test [1] (Table 2) was above 10000 nM; in test [2] it was above 10 µM; in test [3], above 10 µM. Further, the IC50 in test [2] and in test [3] was above 10 µM in each case.

For `C#CCn1c(=O)c2c(nc(-c3cccc(OC)c3)n2C)n(CCCOP(=O)(O)O)c1=O` [A-1, 3-(8-(3-Methoxyphenyl)-7-methyl-2,6-dioxo-1-(prop-2-yn-1-yl)-1,2,6,7-tetrahydro-3H-purin-3-yl)propyl dihydrogen phosphate, reference compound], the EC50 in test [4] (Table 2), in test [2] and in test [3] was above 10 µM in each case. Also, the IC50 in test [2] and in test [3] was above 10 µM throughout.

On to `CCOP(=O)(CCCCn1c(=O)n(CC)c(=O)c2[nH]c(COc3ccccc3)nc21)OCC` [C-10, Diethyl (4-(1-ethyl-2,6-dioxo-8-(phenoxymethyl)-1,2,6,7-tetrahydro-3H-purin-3-yl)butyl)phosphonate], for which the values for the EC50 in test [1] (Table 2), in test [2] and in test [3] were above 10000 nM, above 10 µM and above 10 µM, respectively. Besides, the IC50 in test [2] and in test [3] was above 10 µM in each case.
